Measurements published in US20160108406A1, “METHOD OF REGULATING CFTR EXPRESSION AND PROCESSING” (UNIVERSITY OF IOWA RESEARCH FOUNDATION, priority 2014, published 2016).

Assays:
ΔF508-CFTR [1] = target: T1, ΔF508-CFTR (Homo sapiens, UniProt P13569, DEL508-508); test: CFTR ubiquitination measurement (anti-HA IP, anti-ubiquitin blot); format: cell-based; details: treatment alone; HeLa-ΔF508-CFTR-HA cells; 72 hrs; MG-132 10 μM last hour; relative to siScr
T1 construct: Here we studied native CFTR, SYVN1 and AMFR gene products in a relevant CF airway epithelial cell line; endogenous in cells; host or cells: CFBE41o- cells (also as polarized ALI cultures)
T1 sequence (P13569 with tags, fused parts or gaps DEL508-508): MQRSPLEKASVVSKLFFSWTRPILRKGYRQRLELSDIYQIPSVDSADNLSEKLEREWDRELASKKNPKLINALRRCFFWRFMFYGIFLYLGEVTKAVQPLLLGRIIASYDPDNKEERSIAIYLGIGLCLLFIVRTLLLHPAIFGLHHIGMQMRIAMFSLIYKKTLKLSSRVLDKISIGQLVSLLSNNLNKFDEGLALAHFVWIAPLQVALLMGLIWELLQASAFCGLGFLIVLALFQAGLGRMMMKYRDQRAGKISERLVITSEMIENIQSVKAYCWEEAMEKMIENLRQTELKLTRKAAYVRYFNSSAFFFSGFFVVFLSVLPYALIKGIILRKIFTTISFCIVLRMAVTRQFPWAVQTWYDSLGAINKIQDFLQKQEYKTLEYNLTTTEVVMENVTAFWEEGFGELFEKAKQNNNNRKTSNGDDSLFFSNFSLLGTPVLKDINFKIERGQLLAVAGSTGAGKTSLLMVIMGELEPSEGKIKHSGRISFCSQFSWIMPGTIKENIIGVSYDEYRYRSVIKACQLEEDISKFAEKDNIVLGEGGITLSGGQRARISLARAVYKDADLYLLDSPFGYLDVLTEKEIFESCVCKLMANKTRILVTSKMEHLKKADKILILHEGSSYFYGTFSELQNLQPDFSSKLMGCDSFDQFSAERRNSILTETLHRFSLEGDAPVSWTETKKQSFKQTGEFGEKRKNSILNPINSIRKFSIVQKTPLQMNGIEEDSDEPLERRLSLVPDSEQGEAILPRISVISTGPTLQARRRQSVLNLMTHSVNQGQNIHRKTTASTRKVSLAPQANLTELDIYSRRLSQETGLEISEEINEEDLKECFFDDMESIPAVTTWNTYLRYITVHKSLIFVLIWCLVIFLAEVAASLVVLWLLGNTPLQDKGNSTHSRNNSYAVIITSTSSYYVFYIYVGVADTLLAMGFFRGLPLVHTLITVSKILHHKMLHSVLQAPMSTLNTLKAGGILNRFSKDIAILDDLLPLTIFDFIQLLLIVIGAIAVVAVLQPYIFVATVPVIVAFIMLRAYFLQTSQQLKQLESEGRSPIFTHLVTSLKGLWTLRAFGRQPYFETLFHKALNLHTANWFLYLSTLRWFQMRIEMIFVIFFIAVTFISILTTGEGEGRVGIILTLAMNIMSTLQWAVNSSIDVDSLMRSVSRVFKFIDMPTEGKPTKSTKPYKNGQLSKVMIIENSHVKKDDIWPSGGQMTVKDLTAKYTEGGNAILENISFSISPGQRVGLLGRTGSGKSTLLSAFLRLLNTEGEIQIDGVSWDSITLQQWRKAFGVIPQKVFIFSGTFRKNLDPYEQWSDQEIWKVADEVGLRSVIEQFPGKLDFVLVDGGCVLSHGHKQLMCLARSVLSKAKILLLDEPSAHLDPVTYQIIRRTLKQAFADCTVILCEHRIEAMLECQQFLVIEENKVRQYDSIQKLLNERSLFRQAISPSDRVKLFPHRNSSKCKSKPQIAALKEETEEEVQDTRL
Procedure: Cells were treated with 10 μM MG-132 in the last 1-hour of incubation, and then lysed in lysis buffer (1% Triton, 25 mM Tris pH 7.4, 150 mM NaCl, protease inhibitors (cOmplete™, mini, EDTA-free, Roche), 5 mM N-ethylmaleimide (NEM) and 20 μM MG-132) for 30 min at 4° C. The lysates were centrifuged at 14,000 rpm for 20 min at 4° C., and the supernatant quantified by BCA Protein Assay kit (Pierce). CFTR was precipitated with the anti-HA antibody. The immunoprecipitates were analyzed by immunoblotting with anti-Ub and anti-HA antibodies. CFTR ubiquitination level with molecular masses >180 kDa was measured by densitometry and normalized for the CFTR level in the precipitate.
Immunoprecipitation (IP) experiments were performed in HeLa cells stably expressing ΔF508-CFTR-HA. To IP ΔF508-CFTR, cells were lysed (as described above), and supernatant (20-50 μg of protein) was incubated with either anti-HA (to IP CFTR) or anti-AMFR for 1 h at 4° C., followed by incubation with protein G-agarose (Invitrogen) for 1 h at 4° C. Immunoprecipitates were washed 4 times with lysis buffer and eluted in 6× sample-SDS buffer. Samples were analyzed by immunoblotting as described above.

ΔF508-CFTR [2] = details: primary CF airway epithelia; reference 18; cited from earlier work

Compound	ΔF508-CFTR ubiquitination (ΔF508-CFTR [1])	ΔF508-CFTR expression and Cl− transport (ΔF508-CFTR [2])
O=C(Nc1ncc(C(c2ccccc2Cl)N2CCC(O)C2)s1)C1(c2ccc3c(c2)OCO3)CC1 (centres unmarked) [C18, 1-(benzo[d][1,3]dioxol-5-yl)-N-(5-((2-chlorophenyl)(3-hydroxypyrrolidin-1-yl)methyl)thiazol-2-yl)cyclopropanecarboxamide]	little impact on ΔF508-CFTR ubiquitination levels	
miR-138 mimic: synthetic nucleic acid with miR-138-like activity, sense SEQ ID NO: 4, antisense SEQ ID NO: 5		concomitantly increased ΔF508-CFTR expression and Cl^− transport
